Measurements published in patent US12178790B2, “Antibacterial compound isolated from Psiloxylon mauritianum and its derivatives” (CENTRE NATIONAL DE LA RECHERCHE SCIENTIFIQUE(CNRS), priority 2021, dated 2024).
Converted amounts (≈) assume the structure as drawn. Like-named read-outs stand apart in the source and are kept apart here.

How the values were obtained:
[1] = test system: Human lung fibroblast cells (MRC-5); experiment: Cytotoxicity evaluation, MTS assay; type: cell-based
Procedure: (§1) Human lung fibroblast cells (MRC-5) were purchased from ATCC (Rockville, Md., USA) and cultured as recommended. Cell growth inhibition was determined by an MTS assay according to the manufacturer's instructions (Promega, Madison, Wis., USA). The cells were seeded in 96-well plates containing the growth medium. After 24 h of culture, samples were dissolved in DMSO (Sigma-Aldrich, France), and added to the cells (at 1 and 10 μM final concentrations). After 72 h of incubation, the reagent was added, and the absorbance at 490 nm was recorded using a plate reader. Cell viability was evaluated in comparison with untreated control cultures. Docetaxel (Taxotere) was used as positive control (IC50: 0.5 nM). All assays were conducted in triplicate.

[2] = test system: Staphylococcus aureus (ATCC 29213); experiment: MIC determination (microdilution), S. aureus; type: cell-based; conditions: for MIC: Staphylococcus aureus, ATCC29213
Procedure: (§2) The crude extract and pure compounds isolated were tested against human pathogenic microorganisms, including the bacterium Staphylococcus aureus (ATCC 29213), MRSA (ATCC 33591), Candida albicans (ATCC 10213), Trichophyton rubrum (SNB-TR1) and P. aeruginosa ATCC 27853 to screen their antibacterial and antifungal activities. All ATCC strains were purchased from the Pasteur Institute. The clinical isolate was provided by Prof. Philippe Loiseau, Université Paris Sud. The ITS sequence was deposited in the NCBI GenBank database under the registry number KC692746 corresponding to SNB-TR1 strain. The tests were conducted in accordance to the reference protocols from the European Committee on Antimicrobial Susceptibility Testing. The standard microdilutions, ranging from 256 to 0.25 μg/mL were made from stock solutions prepared in DMSO (Sigma-Aldrich, France). The microplates were incubated at 35° C., and MIC values were obtained after 48 h for C. albicans, 24 h for S. aureus and 5 days for T. rubrum. The MIC values reported in Table 2 refer to the lowest concentration preventing visible growth in the wells. Vancomycin (Sigma-Aldrich, Saint-Quentin Fallavier, France) and oxacillin (Sigma-Aldrich, Saint-Quentin Fallavier, France) were used as positive controls for bacteria. Fluconazole (Sigma-Aldrich, Saint-Quentin Fallavier, France) and itraconazole (Sigma-Aldrich, Saint-Quentin Fallavier, France) were used as positive controls for fungi. All assays were conducted in duplicate.

MRSA (ATCC 33591) = experiment: MIC determination (microdilution), MRSA; type: cell-based, Staphylococcus aureus; conditions: for MIC: Staphylococcus aureus, read-out: MIC MRSA ATCC 33591
Procedure: as §2

[3] = test system: Trichophyton rubrum (SNB-TR1); experiment: MIC determination (microdilution), T. rubrum; type: cell-based; conditions: for MIC: Trichophyton rubrum, 120 h
Procedure: as §2

[4] = test system: Candida albicans (ATCC 10213); experiment: MIC determination (microdilution), C. albicans; type: cell-based; conditions: for MIC: Candida albicans, ATCC10213
Procedure: as §2

[5] = test system: SARM G + 78 (clinical strain); experiment: MIC against Gram-positive bacteria; type: cell-based; conditions: Staphylococcus aureus
Procedure: as §2

[6] = test system: SARM G + 79 (clinical strain); experiment: MIC against Gram-positive bacteria; type: cell-based; conditions: Staphylococcus aureus
Procedure: as §2

[7] = test system: SARM G + 86 (clinical strain); experiment: MIC against Gram-positive bacteria; type: cell-based; conditions: Staphylococcus aureus
Procedure: as §2

[8] = test system: SARM G + 82 (clinical strain); experiment: MIC against Gram-positive bacteria; type: cell-based; conditions: Staphylococcus aureus
Procedure: as §2

[9] = test system: S. epidermis MSF G + 16 (clinical strain); experiment: MIC against Gram-positive bacteria; type: cell-based
[10] = test system: Bacillus sp. L4 210321 (clinical strain); experiment: MIC against Gram-positive bacteria; type: cell-based
[11] = test system: Enterococcus faecium SI299 (clinical strain); experiment: MIC against Gram-positive bacteria; type: cell-based
[12] = Cytotoxicity evaluation, MTS assay; type: cell-based; conditions: human, MRC-5 human lung fibroblast cells, 72 h, read-out: MRC5 Cell Viability
Procedure: as §1

SARM NCTC 12493 = experiment: MIC against Gram-positive bacteria; type: cell-based; conditions: Staphylococcus aureus, NCTC12493
[13] = test system: S. epidermis MSF G + 15 (clinical strain); experiment: MIC against Gram-positive bacteria; type: cell-based
[14] = test system: Corynebacterium sp. L2 220321 (clinical strain); experiment: MIC against Gram-positive bacteria; type: cell-based
[15] = test system: Enterococcus faecalis 29212; experiment: MIC against Gram-positive bacteria; type: cell-based
[16] = test system: Enterococcus faecium van B (clinical strain); experiment: MIC against Gram-positive bacteria; type: cell-based
S. aureus ATCC25923 = experiment: MIC against Gram-positive bacteria; type: cell-based; conditions: Staphylococcus aureus
[17] = test system: Escherichia coli WT 25922; experiment: MIC against Gram-negative bacteria, alone or in combination with colistin; type: cell-based
Procedure: as §2
(§3) Permeabilizers are compounds that weaken the outer membrane by enhance the permeability of bacterial cells to antimicrobial agents. [Farrag, H. A.; Abdallah, N.; Shehata, M. M. K.; Awad, E. M. J Biomed Sci, 2019, 26:69] Colistin a.k.a. polymyxin E were extensively used in clinical practice for Gram-negative organisms, but gradually withdrawn from the market due to reports of significant nephrotoxicity and neurotoxicity. [Mohamed, Y. F., Abou-Shleib, H. M., Khalil, A. M., El-Guink, N. M., & El-Nakeeb, M. A. Braz J Microbiol., 2016, 47, 381-388] In combinaison with various antibiotics, colistin is known to destabilize the outer membrane enhancing the antibacterial activity. In our study, we evaluated a combinaison of colistin at a sub-inhibitory concentration and Aspidin CB. […] (Table 5)

[18] = test system: Acinetobacter baummanii 19606; experiment: as above; type: cell-based
Procedure: as §2, §3

[19] = ABTS radical scavenging (antioxidant) assay; type: biochemical; conditions: at 50 μg/ml
Source text: P. mauritianum extracts were investigated for their antioxidant activities with using an ABTS [2,2′-azinobis-(3-ethylbenzothiazoline-6-sulfonate)] assay.

[20] = human pathogenic fungi, in words
[21] = colistin at sub-inhibitory concentration, in words

Compound: CCCC(=O)C1=C(O)C(Cc2c(O)c(C)c(OC)c(C(=O)CCC)c2O)=C(O)C(C)(C)C1=O [Compound 1, Aspidin BB]
- MRC5 Cell Viability ([1]; 10^−5 M, 72 h): 86 ± 3%
- MRC5 Cell Viability ([1]; 10^−6 M, 72 h): 104 ± 1%
- MIC S. aureus ATCC 29213 ([2]; Table 6 and text, 24 h): 2 µg/mL (≈ 4.34 µM)
- Antibacterial activity against S. aureus ([2]; in words): strongly active
- MIC MRSA ATCC 33591 (MRSA (ATCC 33591); Table 6 and text): 1 µg/mL (≈ 2.17 µM)
- Antibacterial activity against MRSA (MRSA (ATCC 33591); in words): strongly active
- MIC T. rubrum SNB-TR1 ([3]; Table 6, 5 days): >256 µg/mL
- Antifungal activity against T. rubrum [3, 20]: inactive
- MIC C. albicans ATCC 10213 ([4]; Table 6, 48 h): >256 µg/mL
- Antifungal activity against C. albicans [4, 20]: inactive

Compound: CCCCCC(=O)C1=C(O)C(C)(C)C(O)=C(Cc2c(O)c(C)c(OC)c(C(=O)CCC)c2O)C1=O [Compound 2, Aspidin CB]
- MIC [5]: 0.5 µg/mL (≈ 1.02 µM)
- MIC [6]: 1 µg/mL (≈ 2.05 µM)
- MIC [7]: 0.5 µg/mL (≈ 1.02 µM)
- MIC [8]: 0.5 µg/mL (≈ 1.02 µM)
- MIC [9]: 2 µg/mL (≈ 4.09 µM)
- MIC [10]: 1 µg/mL (≈ 2.05 µM)
- MIC [11]: 8 µg/mL (≈ 16.4 µM)
- viability at 72 h ([12]; 10^−5 M): 99 ± 2%
- viability at 72 h ([12]; 10^−6 M): 105 ± 2%
- Cytotoxicity in MRC5 cells ([1]; at 10^−5 M, in words): no cytotoxicity was observed
- MIC (SARM NCTC 12493): 0.5 µg/mL (≈ 1.02 µM)
- MIC [13]: 0.5 µg/mL (≈ 1.02 µM)
- Fold stronger activity of compound 2 vs compound 1 on S. aureus strains ([2]; S. aureus and MRSA, ratio of MICs): 4-to 8 fold
- MIC ([2]; Table 6 and text, 24 h): 0.25 µg/mL (≈ 0.512 µM)
- MIC (MRSA (ATCC 33591); Table 6 and text): 0.25 µg/mL (≈ 0.512 µM)
- Fold more potent than vancomycin against MRSA (MRSA (ATCC 33591); ratio of MICs): 16 fold
- MIC [14]: 1 µg/mL (≈ 2.05 µM)
- MIC ([3]; Table 6, 5 days): 256 µg/mL (≈ 524 µM)
- MIC [15]: 8 µg/mL (≈ 16.4 µM)
- MIC [16]: 0.5 µg/mL (≈ 1.02 µM)
- MIC (S. aureus ATCC25923): 0.5 µg/mL (≈ 1.02 µM)
- MIC ([4]; Table 6, 48 h): > 256 µg/mL
- MIC ([17]; Escherichia coli, WT25922, single agent): > 64 µg/mL
- Activity against E. coli in combination with colistin vs alone [17, 21]: unambiguously more active
- MIC ([18]; Acinetobacter, 19606, single agent): > 64 µg/mL
- Activity against A. baumanii in combination with colistin vs alone [18, 21]: unambiguously more active

Compound: CC(=O)O[C@@]12CO[C@@H]1C[C@H](O)[C@@]1(C)C(=O)[C@H](O)C3=C(C)[C@@H](OC(=O)[C@H](O)[C@@H](NC(=O)OC(C)(C)C)c4ccccc4)C[C@@](O)([C@@H](OC(=O)c4ccccc4)[C@H]21)C3(C)C [Docetaxel, reference compound]
- IC50 ([1]; Homo sapiens, MRC5, positive control, 72 h, read-out: IC50 cell growth inhibition MRC-5): 0.5 nM

Compound: OC(Cn1cncn1)(Cn1cncn1)c1ccc(F)cc1F [Fluconazole, reference compound]
- MIC ([3]; Table 6, 5 days): 4 µg/mL (≈ 13.1 µM)
- MIC ([4]; Table 6, 48 h): 1 µg/mL (≈ 3.27 µM)

Compound: CCC(C)n1ncn(-c2ccc(N3CCN(c4ccc(OCC5COC(Cn6cncn6)(c6ccc(Cl)cc6Cl)O5)cc4)CC3)cc2)c1=O (centres unmarked) [Itraconazole, reference compound]
- MIC ([3]; Table 6, 5 days): < 0.5 µg/mL
- MIC ([4]; Table 6, 48 h): < 0.5 µg/mL

Compound: Cc1onc(-c2ccccc2)c1C(=O)N[C@@H]1C(=O)N2[C@@H]1SC(C)(C)[C@@H]2C(=O)O [Oxacillin, reference compound]
- MIC ([2]; Table 6 and text, 24 h): 0.25 µg/mL (≈ 0.623 µM)

Compound: Cc1c(C)c2c(c(C)c1O)CCC(C)(C(=O)O)O2 (centres unmarked) [Trolox]
- % ABTS inhibition [19]: 98.0%

Compound: CN[C@H](CC(C)C)C(=O)N[C@H]1C(=O)N[C@@H](CC(N)=O)C(=O)N[C@H]2C(=O)N[C@H]3C(=O)N[C@H](C(=O)N[C@H](C(=O)O)c4cc(O)cc(O)c4-c4cc3ccc4O)[C@H](O)c3ccc(c(Cl)c3)Oc3cc2cc(c3O[C@@H]2O[C@H](CO)[C@@H](O)[C@H](O)[C@H]2O[C@H]2C[C@](C)(N)[C@H](O)[C@H](C)O2)Oc2ccc(cc2Cl)[C@H]1O [Vancomycin, reference compound]
- MIC (MRSA (ATCC 33591)): 4 µg/mL (≈ 2.76 µM)

Compound: Colistin [reference compound]
- MIC Escherichia coli WT 25922 ([17]; single agent): 1 µg/mL
- MIC Acinetobacter baummanii 19606 ([18]; single agent): 4 µg/mL

Compound: Tocopherol
- % ABTS inhibition [19]: 97.6%
